Experimental data reported in US9062041B2 (Bayer Intellectual Property GmbH, priority 2011, dated 2015).

Tests used:
Format in all cases: cell-based
[1] = molecular target: EP2 subtype of the human PGE2 receptor (Homo sapiens, UniProt P43116); test: cAMP antagonism test on the human EP2 receptor (HTRF cAMP detection); conditions: hEP2 receptor, read-out: Antagonism hEP2 IC50
Summary of the method: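 Cells expressing human EP2 preincubated 20 min at RT with compound (0.8 nM–16.5 μM), then stimulated 60 min with PGE2 (3× solution 1.5 nM) in PBS-IBMX. After 20 min lysis, cAMP measured by competitive HTRF with cAMP-d2 and Eu cryptate anti-cAMP antibody (665/620 nm ratio).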

[2] = molecular target: EP4 subtype of the human PGE2 receptor (Homo sapiens, UniProt P35408); test: cAMP antagonism test on the human EP4 receptor (HTRF cAMP detection); conditions: selectivity towards hEP4, IC50 measured by cAMP antagonism test
EP4 subtype of the human PGE2 receptor, sequence (P35408 whole entry): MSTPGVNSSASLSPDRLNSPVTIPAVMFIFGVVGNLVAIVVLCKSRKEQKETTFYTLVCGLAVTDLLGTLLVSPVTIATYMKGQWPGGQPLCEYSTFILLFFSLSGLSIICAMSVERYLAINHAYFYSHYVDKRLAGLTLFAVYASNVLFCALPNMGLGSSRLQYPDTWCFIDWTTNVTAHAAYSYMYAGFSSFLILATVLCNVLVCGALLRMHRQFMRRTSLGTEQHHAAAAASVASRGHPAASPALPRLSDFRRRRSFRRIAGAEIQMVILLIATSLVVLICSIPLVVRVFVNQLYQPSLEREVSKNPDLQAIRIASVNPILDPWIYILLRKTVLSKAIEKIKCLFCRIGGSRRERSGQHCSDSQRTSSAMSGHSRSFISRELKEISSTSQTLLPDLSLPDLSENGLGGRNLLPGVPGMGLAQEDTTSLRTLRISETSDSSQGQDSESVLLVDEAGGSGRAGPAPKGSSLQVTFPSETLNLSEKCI
Summary of the method: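 Cells expressing human EP4 preincubated 20 min at RT with compound (0.8 nM–16.5 μM), then stimulated with PGE2 (0.3 nM in 3× solution, with IBMX) 60 min at RT. After lysis, cAMP measured by HTRF competition (665/620 nm ratio); antagonism seen as rise in FRET signal.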

human PGD receptor = molecular target: T1, human PGD receptor (Homo sapiens, UniProt Q13258); test: cAMP antagonism test on the human prostaglandin D receptor (HTRF cAMP detection); conditions: selectivity towards hDP, IC50 measured by cAMP antagonism test
T1 sequence (Q13258 1-359): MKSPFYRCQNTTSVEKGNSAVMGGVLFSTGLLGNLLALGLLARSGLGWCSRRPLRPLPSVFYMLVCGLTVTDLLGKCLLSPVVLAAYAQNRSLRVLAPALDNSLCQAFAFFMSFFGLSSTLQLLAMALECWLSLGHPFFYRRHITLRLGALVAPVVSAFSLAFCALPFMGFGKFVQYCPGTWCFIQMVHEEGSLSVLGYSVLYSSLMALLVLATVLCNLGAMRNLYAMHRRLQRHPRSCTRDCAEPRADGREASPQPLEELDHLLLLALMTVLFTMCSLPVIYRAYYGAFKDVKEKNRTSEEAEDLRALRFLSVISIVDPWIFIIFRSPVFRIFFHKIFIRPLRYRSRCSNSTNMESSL
Summary of the method: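 Cells pre-mixed with cAMP-d2 were preincubated with compound (0.8 nM–16.5 μM) for 20 min at RT, then stimulated with 3× PGD2 solution (6 nM, in PBS-IBMX) for 30 min at RT. After lysis (20 min), HTRF read at 665/620 nm; antagonism seen as rise in FRET ratio.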

EP2 subtype of the human PGE2 receptor, sequence (P43116 whole entry): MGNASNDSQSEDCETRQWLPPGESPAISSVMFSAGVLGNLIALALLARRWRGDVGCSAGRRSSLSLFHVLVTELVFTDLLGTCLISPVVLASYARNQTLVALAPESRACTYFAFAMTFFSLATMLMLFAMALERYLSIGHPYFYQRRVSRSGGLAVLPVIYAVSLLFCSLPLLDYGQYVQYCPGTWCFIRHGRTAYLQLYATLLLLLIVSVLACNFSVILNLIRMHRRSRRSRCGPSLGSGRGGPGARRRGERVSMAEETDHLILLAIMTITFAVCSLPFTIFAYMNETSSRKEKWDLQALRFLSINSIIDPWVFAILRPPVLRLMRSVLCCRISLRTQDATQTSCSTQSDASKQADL

Row | SMILES | IC50 [1] [nM] | Selectivity hEP2/hEP4 [2] | Selectivity hEP2/hDP (human PGD receptor)
1 | COCCNC(=O)c1cc2cn(CC3CN(C(=O)c4ccc(C(F)(F)F)cc4)C3)nc2cc1C [Example 186, N-(2-methoxyethyl)-6-methyl-2-({1-[4-(trifluoromethyl)benzoyl]azetidin-3-yl}methyl)-2H-indazol-5-carboxamide] | 51.9 | xxx (xxx > 100) | xxx (xxx > 100)
2 | Cc1cc2nn(CC3CN(C(=O)c4ccc(S(F)(F)(F)(F)F)cc4)C3)cc2cc1C(=O)NCCSC(F)(F)F [Example 187, 6-methyl-2-({1-[4-(pentafluoro-λ^6-sulphanyl)benzoyl]azetidin-3-yl}methyl)-N-{2-[(trifluoromethyl)sulphanyl]ethyl}-2H-indazol-5-carboxamide] | 23.5 | xxx (xxx > 100) | xxx (xxx > 100)
3 | Cc1cc2nn(CC3CN(C(=O)c4ccc(Cl)cc4)C3)cc2cc1C(=O)NCCSC(F)(F)F [Example 189, 2-{[1-(4-chlorobenzoyl)azetidin-3-yl]methyl}-6-methyl-N-{2-[(trifluoromethyl)sulphanyl]ethyl}-2H-indazol-5-carboxamide] | 33.6 | xxx (xxx > 100) | xxx (xxx > 100)
4 | Cc1cc2nn(CC3CN(C(=O)c4ccc(Cl)cc4)C3)cc2cc1C(=O)NCC(F)(F)F [Example 190, 2-{[1-(4-chlorobenzoyl)azetidin-3-yl]methyl}-6-methyl-N-(2,2,2-trifluoroethyl)-2H-indazol-5-carboxamide] | 272 | xx (xx: 10-100) | xx (xx: 10-100)
5 | COCCNC(=O)c1cc2cn(CC3CN(C(=O)c4ccc(C5CC5)cc4)C3)nc2cc1C [Example 200, 2-{[1-(4-cyclopropylbenzoyl)azetidin-3-yl]methyl}-N-(2-methoxyethyl)-6-methyl-2H-indazol-5-carboxamide] | 15.1 | xxx (xxx > 100) | xxx (xxx > 100)
6 | Cc1cc2nn(CC3CN(C(=O)c4ccc(Oc5ccc(C(F)(F)F)cc5)cc4)C3)cc2cc1C(=O)NCC(F)(F)F [Example 201, 6-methyl-N-(2,2,2-trifluoroethyl)-2-[(1-{4-[4-(trifluoromethyl)phenoxy]benzoyl}azetidin-3-yl)methyl]-2H-indazol-5-carboxamide] | 24.9 | xxx (xxx > 100) | xxx (xxx > 100)
7 | COCCNC(=O)c1cc2cn(CC3CN(C(=O)c4ccc(-c5ccc(F)cc5)cc4)C3)nc2cc1C [Example 204, 2-({1-[(4′-fluorobiphenyl-4-yl)carbonyl]azetidin-3-yl}methyl)-N-(2-methoxy-ethyl)-6-methyl-2H-indazol-5-carboxamide] | 10 | xxx (xxx > 100) | xxx (xxx > 100)
8 | COCCNC(=O)c1cc2cn(CC3CCN(C(=O)c4ccc(Cl)cc4)CC3)nc2cc1C [Example 205, 2-{[1-(4-chlorobenzoyl)piperidin-4-yl]methyl}-N-(2-methoxyethyl)-6-methyl-2H-indazol-5-carboxamide] | 43.3 | xxx (xxx > 100) | xxx (xxx > 100)
9 | COCCNC(=O)c1cc2cn(CC3CCN(C(=O)c4ccc(C(F)(F)F)cc4F)CC3)nc2cc1C [Example 206, 2-({1-[2-fluoro-4-(trifluoromethyl)benzoyl]piperidin-4-yl}methyl)-N-(2-methoxy-ethyl)-6-methyl-2H-indazol-5-carboxamide] | 41.3 | xxx (xxx > 100) | xxx (xxx > 100)
10 | COCCNC(=O)c1cc2cn(CC3CCN(C(=O)c4ccc(Cl)cc4F)CC3)nc2cc1C [Example 207, 2-{[1-(4-chloro-2-fluorobenzoyl)piperidin-4-yl]methyl}-N-(2-methoxyethyl)-6-methyl-2H-indazol-5-carboxamide] | 30.3 | xxx (xxx > 100) | xxx (xxx > 100)
11 | COCCNC(=O)c1cc2cn(CC3CCN(C(=O)c4ccc(C(F)(F)F)c(F)c4)CC3)nc2cc1C [Example 208, 2-({1-[3-fluoro-4-(trifluoromethyl)benzoyl]piperidin-4-yl}methyl)-N-(2-methoxyethyl)-6-methyl-2H-indazol-5-carboxamide] | 80.6 | xxx (xxx > 100) | xxx (xxx > 100)
12 | COCCNC(=O)c1cc2cn(CC3CCN(C(=O)c4ccc(Cl)c(C(F)(F)F)c4)CC3)nc2cc1C [Example 209, 2-({1-[4-chloro-3-(trifluoromethyl)benzoyl]piperidin-4-yl}methyl)-N-(2-methoxyethyl)-6-methyl-2H-indazol-5-carboxamide] | 25.1 | xxx (xxx > 100) | xxx (xxx > 100)

Continued by falling IC50 [1], values first:

Row | IC50 [1] [nM] | Selectivity hEP2/hEP4 [2] | Selectivity hEP2/hDP (human PGD receptor) | SMILES
13 | 227 | xx (xx: 10-100) | xx (xx: 10-100) | Cc1cc2nn(CC3CN(C(=O)c4ccc(OC(F)(F)F)cc4)C3)cc2cc1C(=O)NCC(F)(F)F [Example 195, 6-methyl-N-(2,2,2-trifluoroethyl)-2-({1-[4-(trifluoromethoxy)benzoyl]azetidin-3-yl}methyl)-2H-indazol-5-carboxamide]
14 | 153 | xxx (xxx > 100) | xxx (xxx > 100) | Cc1cc2nn(CC3CN(C(=O)c4ccc(Cl)cc4)C3)cc2cc1C(=O)NCCOCC1CC1 [Example 198, 2-{[1-(4-chlorobenzoyl)azetidin-3-yl]methyl}-N-[2-(cyclopropylmethoxy)ethyl]-6-methyl-2H-indazol-5-carboxamide]
15 | 149 | xxx (xxx > 100) | xxx (xxx > 100) | Cc1cc2nn(CC3CN(C(=O)c4ccc(S(F)(F)(F)(F)F)cc4)C3)cc2cc1C(=O)NCC(F)(F)F [Example 188, 6-methyl-2-({1-[4-(pentafluoro-λ^6-sulphanyl)benzoyl]azetidin-3-yl}methyl)-N-(2,2,2-trifluoroethyl)-2H-indazol-5-carboxamide]
16 | 97.1 | xxx (xxx > 100) | xxx (xxx > 100) | Cc1cc2nn(CC3CN(C(=O)c4ccc(Oc5ccc(F)cc5)cc4)C3)cc2cc1C(=O)NCCSC(F)(F)F [Example 199, 2-({1-[4-(4-fluorophenoxy)benzoyl]azetidin-3-yl}methyl)-6-methyl-N-{2-[(trifluoromethyl)sulphanyl]ethyl}-2H-indazol-5-carboxamide]
17 | 85.7 | xxx (xxx > 100) | xxx (xxx > 100) | Cc1cc2nn(CC3CN(C(=O)c4ccc(-c5ccc(F)cc5)cc4)C3)cc2cc1C(=O)NCC(F)(F)F [Example 203, 2-({1-[(4′-fluorobiphenyl-4-yl)carbonyl]azetidin-3-yl}methyl)-6-methyl-N-(2,2,2-trifluoroethyl)-2H-indazol-5-carboxamide]
18 | 63.2 | xxx (xxx > 100) | xxx (xxx > 100) | Cc1cc2nn(CC3CN(C(=O)c4ccc(Cl)cc4)C3)cc2cc1C(=O)NCCOC(F)(F)F [Example 197, 2-{[1-(4-chlorobenzoyl)azetidin-3-yl]methyl}-6-methyl-N-[2-(trifluoromethoxy)ethyl]-2H-indazol-5-carboxamide]
19 | 50.8 | xxx (xxx > 100) | xxx (xxx > 100) | Cc1cc2nn(CC3CN(C(=O)c4ccc(OC(F)(F)F)cc4)C3)cc2cc1C(=O)NCCOC(F)(F)F [Example 196, 6-methyl-2-({1-[4-(trifluoromethoxy)benzoyl]azetidin-3-yl}methyl)-N-[2-(trifluoromethoxy)ethyl]-2H-indazol-5-carboxamide]
20 | 40.9 | xxx (xxx > 100) | xxx (xxx > 100) | Cc1cc2nn(CC3CN(C(=O)c4ccc(OC(F)(F)F)cc4)C3)cc2cc1C(=O)NCCSC(F)(F)F [Example 194, 6-methyl-2-({1-[4-(trifluoromethoxy)benzoyl]azetidin-3-yl}methyl)-N-{2-[(trifluoromethyl)sulphanyl]ethyl}-2H-indazol-5-carboxamide]
21 | 5.06 | xxx (xxx > 100) | xxx (xxx > 100) | COCCNC(=O)c1cc2cn(CC3CN(C(=O)c4ccc(Oc5ccc(C(F)(F)F)cc5)cc4)C3)nc2cc1C [Example 202, N-(2-methoxyethyl)-6-methyl-2-[(1-{4-[4-(trifluoromethyl)phenoxy]benzoyl}-azetidin-3-yl)methyl]-2H-indazol-5-carboxamide]
